In patent US11471459B2, “Compounds with enhanced anti-tumor effects” (FONDAZIONE PER L'ISTITUTO ONCOLOGICO DI RICERCA (IOR), priority 2018, dated 2022):

Key:
L-428 = test: Proliferation MTT assay, 72 h; type: cell-based; conditions: Homo sapiens, L-428 (HL), 72 h exposure
Method: (§1) Thirty-nine cell lines derived from activated B cell-like (ABC) (n=3) and germinal center B Cell (GCB) (n=12) diffuse large B cell lymphoma (DLBCL), mantle cell lymphoma (MCL) (n=9), chronic lymphocytic leukemia (CLL) (n=2), Hodgkin lymphoma (HL) (n=4), cutaneous T cell lymphoma (CTCL) (n=3), peripheral T cell lymphoma (PTCL) (n=1), anaplastic large T cell lymphoma (ALCL) (n=4), acute T cell leukemia (ATCL) (n=1) were cultured according to the recommended conditions. All media were supplemented with fetal bovine serum (10%), Penicillin-Streptomycin-Neomycin (˜5,000 units penicillin, 5 mg streptomycin and 10 mg neomycin/mL, Sigma) and L-glutamine (1%).
(§2) EG-011 was dissolved in dimethyl sulphoxide (DMSO) to obtain a stock concentration of 10 mM for in vitro experiments. EG-011 was dissolved in 25% hydroxypropyl beta cyclodextrin (HP-β-CD) in water and adjusted at pH 6.0 using NaOH (0.1 N) and HCl (0.1 N) for in vivo experiments. Application volume was 4.5 mL/kg (100 mg in 4.5 mL), and mice received 200 microliters (corresponding to 200 mg/kg) though intra peritoneal i.p. injection, once per day and five days per week.
(§3) Cells were seeded in 96-well plates (non-tissue culture treated) at a density of 10,000 cells for all cell lines. Each compound was dissolved in dimethyl sulphoxide (DMSO). For treatment of cells, compounds were serially diluted in the appropriate tissue culture medium, at a range of 20 mcM-78 nM following a 1:2 dilution factor and added to cells (in three replicates). Cells were incubated for 72 hours at 37° C., 5% CO2. DMSO alone was added to negative control (untreated) cells. Wells containing medium only were included on each plate and served as blanks for absorbance readings. MTT (Sigma-Aldrich Chemie GmbH, Buchs, Switzerland) was prepared as a 5 mg/ml stock in PBS and filter-sterilized. MTT solution (22 μL) was added to each well and tissue culture plates were incubated at 37° C. for 4 hours. Cells were then lysed with 25% SDS lysis buffer and absorbance was read at 570 nm using an AD340 plate reader (Beckman Coulter International SA, Switzerland). Absorbance values were expressed in percentage of proliferating cells in comparison with control cells (control corresponds to 100%).

SP53 = test: Proliferation MTT assay, 72 h; type: cell-based; conditions: SP53 (MCL), 72 h exposure
Method: as §1, §2, §3

KM-H2 = test: Proliferation MTT assay, 72 h; type: cell-based; conditions: Homo sapiens, KM-H2 (HL), 72 h exposure
Method: as §1, §2, §3

OCI-LY-8 = test: Proliferation MTT assay, 72 h; type: cell-based; conditions: OCI-Ly8, OCI-LY-8 (GCB-DLBCL), 72 h exposure
Method: as §1, §2, §3

MAVER1 = test: Proliferation MTT assay, 72 h; type: cell-based; conditions: Homo sapiens, MAVER1 (MCL), 72 h exposure
Method: as §1, §2, §3

REC1 = test: Proliferation MTT assay, 72 h; type: cell-based; conditions: Homo sapiens, REC1 (MCL), 72 h exposure
Method: as §1, §2, §3

L-1236 = test: Proliferation MTT assay, 72 h; type: cell-based; conditions: L-1236 (HL), 72 h exposure
Method: as §1, §2, §3

OCI-LY-1 = test: Proliferation MTT assay, 72 h; type: cell-based; conditions: Homo sapiens, OCI-Ly1, OCI-LY-1 (GCB-DLBCL), 72 h exposure
Method: as §1, §2, §3

HUT-78 = test: Proliferation MTT assay, 72 h; type: cell-based; conditions: Homo sapiens, HuT78, HUT-78 (T Cell - CTCL), 72 h exposure
Method: as §1, §2, §3

SU-DHL-6 = test: Proliferation MTT assay, 72 h; type: cell-based; conditions: Homo sapiens, SU-DHL-6 (GCB-DLBCL), 72 h exposure
Method: as §1, §2, §3

TOLEDO = test: Proliferation MTT assay, 72 h; type: cell-based; conditions: Homo sapiens, TOLEDO (GCB-DLBCL), 72 h exposure
Method: as §1, §2, §3

HH = test: Proliferation MTT assay, 72 h; type: cell-based; conditions: Homo sapiens, HH (T Cell - CTCL), 72 h exposure
Method: as §1, §2, §3

KI-JK = test: Proliferation MTT assay, 72 h; type: cell-based; conditions: KI-JK (T Cell - ALCL), 72 h exposure
Method: as §1, §2, §3

OCI-LY-19 [1] = test: Proliferation MTT assay, 72 h; type: cell-based; conditions: Homo sapiens, OCI-LY19, OCI-LY-19 (GCB-DLBCL), 72 h exposure
Method: as §1, §2, §3

SP49 = test: Proliferation MTT assay, 72 h; type: cell-based; conditions: SP49 (MCL), 72 h exposure
Method: as §1, §2, §3

Z138 = test: Proliferation MTT assay, 72 h; type: cell-based; conditions: Homo sapiens, Z-138, Z138 (MCL), 72 h exposure
Method: as §1, §2, §3

[2] = system: human Mantle cell lymphoma REC1 cells; test: Xenograft experiment, REC1 model; type: in vivo; conditions: 200 mg/Kg i.p. once per day, 5 days per week
Method: as §2
NOD-Scid (NOD.CB17-Prkdcscid/NCrHsd) mice were purchased from Harlan Laboratory (five-six weeks of age, approximately 20 g body weight). Mice maintenance and animal experiments were performed under institutional guidelines established for the Animal Facility and with study protocols approved by the local Cantonal Veterinary Authority. Mice were subcutaneously engrafted with 15×10^6 of human Mantle cell lymphoma REC1 cells and divided into two experimental groups. Starting with tumors of 180 mm^3 volume, mice underwent treatment with single agent while controls received vehicle only. EG-011 was administered 5 days per week at the dose of 200 mg/kg (200 microliters) though i.p. injection.

OCI-LY-19 [3] = test: Propidium iodide cell cycle staining; type: cell-based; conditions: OCI-LY-19, 500 and 2000 nM, 72 h
Method: Lymphoma cells (10^6 per condition) were fixed in cold 70% ethanol (for at least 30 minutes at 4° C.), added dropwise to the cell pellet while vortexing. Cells were washed ×2 in PBS and Spin at 2000 rpm; supernatant was discarded and cells suspended in PBS (0.5 mL) and treated with Ribonuclease (50 μl of 100 μg/mL RNase). Then 200 μl of propidium iodide (50 μg/ml) were added and data acquisition was performed by using BD FACS-Canto II.

MCL cell lines = test: Proliferation MTT assay, median per subtype; type: cell-based; conditions: MCL cell lines (n=9), 72 h
Method: as §1, §2, §3
(§4) Binomial exact 95% confidence intervals (95% C.I.s) were calculated for median percentages. Differences in IC50 values among lymphoma subtypes were calculated using the t-Student test. Statistical significance was defined by P values of 0.05 or less.

HL cell lines = test: Proliferation MTT assay, median per subtype; type: cell-based; conditions: HL cell lines (n=4), 72 h
Method: as §1, §2, §3, §4

GCB-DLBCL cell lines = test: Proliferation MTT assay, median per subtype; type: cell-based; conditions: GCB-DLBCL cell lines (n=12), 72 h
Method: as §1, §2, §3, §4

ABC-DLBCL cell lines = test: Proliferation MTT assay, median per subtype; type: cell-based; conditions: ABC-DLBCL cell lines (n=3), 72 h
Method: as §1, §2, §3, §4

[4] = system: T cell lymphomas (CTCL, PTCL, ALCL) cell lines; test: Proliferation MTT assay, median per subtype; type: cell-based; conditions: 72 h
Method: as §1, §2, §3, §4

PLL cell lines = test: Proliferation MTT assay, median per subtype; type: cell-based; conditions: PLL cell lines (n=2), 72 h

Q: With C=CC(=O)N1CCCC(n2c(=O)c3ncccc3n(Cc3ccc(Oc4ccccc4)cc3)c2=O)C1 (centres unmarked) [EG-011, 1-[(4-phenoxyphenyl)methyl]-3-(1-prop-2-enoyl-3-piperidyl)pyrido[3,2-d]pyrimidine-2,4-dione] as the compound, how does the IC50 (L-428) read?
A: The IC50 was 20000 nM.

Q: And the IC50 (SP53)?
A: The IC50 was 1000 nM.

Q: What about the IC50 (KM-H2) of the same compound?
A: Its IC50 is 2500 nM.

Q: What about the IC50 (OCI-LY-8) of the same compound?
A: Its IC50 is 300 nM.

Q: And the IC50 (MAVER1)?
A: Its IC50 is 20000 nM.

Q: And the IC50 (REC1)?
A: Its IC50 is 100 nM.

Q: What about the IC50 (L-1236) of the same compound?
A: Its IC50 is 9000 nM.

Q: And the IC50 (OCI-LY-1)?
A: Its IC50 is 250 nM.

Q: And the IC50 (HUT-78)?
A: The IC50 was 1500 nM.

Q: What about the IC50 (SU-DHL-6) of the same compound?
A: Its IC50 is 500 nM.

Q: And the IC50 (TOLEDO)?
A: Its IC50 is 600 nM.

Q: What about the IC50 (HH) of the same compound?
A: Its IC50 is 15000 nM.

Q: And the IC50 (KI-JK)?
A: Its IC50 is 20000 nM.

Q: And the IC50 (OCI-LY-19 [1])?
A: Its IC50 is 150 nM.

Q: And the IC50 (SP49)?
A: Its IC50 is 8000 nM.

Q: What about the IC50 (Z138) of the same compound?
A: Its IC50 is 20000 nM.

Q: And the “body weight of treated animals (in vivo toxicity)” value [2]?
A: The value was “no reduction in the body weight”.

Q: What about the “tumor growth (volume) versus control” value ([2]; Day 6, Day 7, Day 9, P<0.05) of the same compound?
A: The value was “delayed tumor growth”.

Q: What about the “tumor weight versus control” value ([2]; P<0.001 (FIG. 8)) of the same compound?
A: Its value is “delayed”.

Q: And the “cells in the sub-GO phase (dead cells)” value (OCI-LY-19 [3])?
A: The value was “dose dependent increase of the cells in the sub-GO phase”.

Q: What about the IC50 (MCL cell lines) of the same compound?
A: The IC50 was 1000 nM.

Q: What about the IC50 (HL cell lines) of the same compound?
A: The IC50 was 13500 nM.

Q: What about the IC50 (GCB-DLBCL cell lines) of the same compound?
A: Its IC50 is 550 nM.

Q: And the IC50 (ABC-DLBCL cell lines)?
A: Its IC50 is 10000 nM.

Q: And the IC50 [4]?
A: The IC50 was 2500 nM.

Q: What about the IC50 (PLL cell lines) of the same compound?
A: Its IC50 is 7500 nM.
